For one experiment, the target named is T1, human SGLT-1 (Homo sapiens, UniProt P13866).
T1 sequence (P13866 1-664): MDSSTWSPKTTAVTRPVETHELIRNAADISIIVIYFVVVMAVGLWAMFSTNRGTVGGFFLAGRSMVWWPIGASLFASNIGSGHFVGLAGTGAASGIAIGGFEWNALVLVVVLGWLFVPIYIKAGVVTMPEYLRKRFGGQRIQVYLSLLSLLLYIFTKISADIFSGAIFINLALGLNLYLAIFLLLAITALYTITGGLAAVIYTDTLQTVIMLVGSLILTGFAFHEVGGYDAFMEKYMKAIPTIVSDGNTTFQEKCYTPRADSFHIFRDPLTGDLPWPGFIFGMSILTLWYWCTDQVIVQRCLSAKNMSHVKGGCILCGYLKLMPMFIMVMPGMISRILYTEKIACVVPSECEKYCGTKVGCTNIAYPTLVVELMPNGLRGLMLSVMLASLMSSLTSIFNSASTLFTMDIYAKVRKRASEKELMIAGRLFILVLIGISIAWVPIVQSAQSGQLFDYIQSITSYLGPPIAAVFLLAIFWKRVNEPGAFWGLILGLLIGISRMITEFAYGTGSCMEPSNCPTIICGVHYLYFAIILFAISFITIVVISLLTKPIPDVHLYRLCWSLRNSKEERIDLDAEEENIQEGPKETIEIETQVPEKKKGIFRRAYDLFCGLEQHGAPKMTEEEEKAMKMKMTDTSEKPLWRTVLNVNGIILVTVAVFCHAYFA
Briefly: Inhibitory effect on human SGLT-1 (14C-methyl-a-D-glucopyranoside uptake in transfected NIH3T3 cells). Format: cell-based. The conditions noted are these: NIH3T3 cells expressing human SGLT-1; read-out: IC50 value for inhibiting the human SGLT-1. Here is the method: (§1) 0.2% gelatin was plated on a 24-well plate, and the plate was kept overnight. The plate was washed with PBS once before use. The NIH3T3 cells expressing human SGLT-1 by transfection were inoculated into the 24-well plate in 100,000 cells per well and 1 mL culture medium per well. On the third day, the culture medium was changed once, and simultaneously sodium butyrate was added thereto with a final concentration of 2 mM. The cells were washed with KRH-Na^+ (500 μL) twice, and then incubated with KRH-Na^+ (500 μL) for 30 minutes. The cells were then treated with 200 μL of KRH-Na^+ containing the compound of Example 2, and 50 μL of an uptake buffer (KRH-Na^+ plus methyl-a-D-[U-14C] glucopyranoside and 1 mM methyl-a-D-glucopyranoside). The cells were washed with 500 μL wash buffer thrice with the operation on ice, and baked overnight. The cells were lysed with 200 μL of 0.25N NaOH at 4° C. for 1 hr. The lysate was removed into an EPPENDORF tube, and centrifuged at 4° C. under 12000 g for 5 mins. […] of supernatant was placed in a 2 mL EPPENDORF tube, and 1.7 mL of scintillation cocktail was added thereto. The mixture was shaked vigorously, and then counted. The inhibition rate of the compound of Example 2 at each of concentrations on the transporting activity was calculated.
(§2) IC50 value could be determined by nonlinear curve fitting of sample activities vs. sample concentrations. […]

The target in the next experiment is T2, human SGLT-2 (Homo sapiens, UniProt P31639).
T2 construct: expressed in transfected cells; host or cells: NIH3T3 cells
T2 sequence (P31639 1-672): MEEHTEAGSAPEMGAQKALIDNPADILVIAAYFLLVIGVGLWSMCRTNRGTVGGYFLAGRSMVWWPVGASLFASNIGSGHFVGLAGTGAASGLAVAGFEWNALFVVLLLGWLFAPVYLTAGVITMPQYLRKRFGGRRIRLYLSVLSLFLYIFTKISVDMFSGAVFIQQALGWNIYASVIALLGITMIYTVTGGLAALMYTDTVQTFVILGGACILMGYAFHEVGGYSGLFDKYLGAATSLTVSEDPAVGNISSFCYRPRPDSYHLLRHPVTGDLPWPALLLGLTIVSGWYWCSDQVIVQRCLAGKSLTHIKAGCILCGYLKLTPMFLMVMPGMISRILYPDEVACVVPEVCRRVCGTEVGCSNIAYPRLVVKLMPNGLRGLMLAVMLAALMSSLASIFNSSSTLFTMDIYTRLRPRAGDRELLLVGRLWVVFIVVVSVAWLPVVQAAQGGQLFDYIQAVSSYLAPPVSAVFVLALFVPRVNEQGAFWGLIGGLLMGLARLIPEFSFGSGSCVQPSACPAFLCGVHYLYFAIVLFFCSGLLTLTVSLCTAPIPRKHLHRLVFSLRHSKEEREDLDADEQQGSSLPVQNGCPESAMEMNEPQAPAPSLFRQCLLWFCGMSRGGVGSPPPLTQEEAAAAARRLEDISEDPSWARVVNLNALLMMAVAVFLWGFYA
Briefly: Inhibitory effect on human SGLT-2 (14C-methyl-a-D-glucopyranoside uptake in transfected NIH3T3 cells). The settings on record: NIH3T3 cells expressing human SGLT-2; read-out: IC50 value for inhibiting the human SGLT-2. Format: cell-based. As for the experimental part: as §1, with “SGLT-2” for “SGLT-1”
as §2

The test system of a further experiment is normal rat. Briefly: Effect on the urine glucose excretion of the normal rat. Type of experiment: in vivo. The conditions noted are these: normal SD rats, single intragastric oral administration, then glucose 2 g/kg; in comparison with the blank control, P<0.01, dosage-dependent. From the text: The drug effect of promoting the urine glucose excretion can be determined according to the conventional assay. One preferable evaluation assay is to detect the effect of the present compound on the urine glucose excretion of the normal rat. The assay can be conducted as follows. Thirty 7-week-old male SD rats (about 200 g) are used in the assay. The tested compound having a purity of 97.8% is formulated with 0.75% CMC-Na. […] The SD rats are acclimatized for 7 days, and then placed in the metabolic cages. The rats are fasted overnight (18 hr) under the free access to water. The basic urine samples are collected, and then thirty rats are weighed and grouped randomly into five groups, six rats per group. The rats are administered with the tested compounds or the positive control drug at low dosage, medium dosage, or high dosage. Fifteen minutes after the administration, the rats are intragastrically administrated with 50% glucose solution (2 g/kg). For ensuring a complete collection of the 24-hour urine, the rats are immediately placed in the metabolic cage after the administration of the tested compounds or the positive control drug. One hour after the administration of the glucose solution, the feeds are supplied to the rats. The urines after the administration of the tested compounds or the positive control drug are collected for 24 hours, and then the urine volumes are calculated and the urine glucose concentrations are detected.
The data are analyzed with the software SPSS 12.0, and the quantized data are expressed in “average±standard deviation”. Multiple sets of data are compared according to the analysis of variance (One-way ANOVA). P<0.05 represents statistical difference.
Thirty 7-week-old male SD rats (about 200 g) were used. The compound of Example 2 having a purity of 97.8% was chose as the present compound and formulated with 0.75% CMC-Na. […] The SD rats were acclimatized for 7 days, and then placed in the metabolic cages. The rats were fasted overnight (18 hr) under the free access to water. The basic urine samples were collected, and then thirty rats were weighed and grouped randomly into five groups, six rats per group.
Fifteen minutes after the administration, the rats were intragastrically administrated with 50% glucose solution (2 g/kg). For ensuring a complete collection of the 24-hour urine, the rats were immediately placed in the metabolic cage after the administration of the tested compounds or the positive control drug. […] The urines after the administration of the tested compounds or the positive control drug were collected for 24 hours, and then the urine volumes were calculated and the urine glucose concentrations were detected.
The data were analyzed with the software SPSS 12.0, and the quantized data were expressed in “average±standard deviation”. […]

Turning to `CS[C@H]1O[C@@H](c2ccc(C)c(Cc3ccc(-c4ccc(F)cc4)s3)c2)[C@H](O)[C@@H](O)[C@@H]1O` [Example 2, (2S,3R,4R,5S,6R)-2-[3-((5-(4-fluorophenyl)thienyl)-2-methylene)-4-methylphenyl)-6-methylthio-tetrahydropyran-3,4,5-triol], at human SGLT-1, the IC50 is 28.7 µM. On human SGLT-2, the IC50 turned out to be 0.000172 µM. Also, in the experiment on normal rat, the “24-hour urine glucose masses” value was “remarkably increased” and the 24-hour urine volumes entry was “remarkably increased”.
On to `CCOc1ccc(Cc2cc([C@@H]3O[C@H](CO)[C@@H](O)[C@H](O)[C@H]3O)ccc2Cl)cc1` [Dapagliflozin, reference compound], for which, in the experiment with normal rat, the “24-hour urine glucose masses” value is reported as “remarkably increased” and the 24-hour urine volumes entry was “remarkably increased”.

Broadly, the IC50 is the concentration needed to halve the response being measured.

Source of the values: patent US8871726B2, “C-aryl glucoside derivative, preparation method therefor, and use thereof” (Shanghai Allist Pharmaceuticals, Inc., priority 2010, dated 2014).
